Source: ChEMBL document CHEMBL3351528, “Targeting dopamine D3 and serotonin 5-HT1A and 5-HT2A receptors for developing effective antipsychotics: synthesis, biological characterization, and behavioral studies” (J Med Chem, 2014)

Columns and labels:
D(3) dopamine receptor = D(3) dopamine receptor (Homo sapiens, UniProt P35462); assay: Antagonist activity at human dopamine D3 receptor expressed in CHO-K1 cells assessed as reduction in dopamine-induced response by [35S]GTPgammaS binding assay; format: functional, cell-based
Chain of D(3) dopamine receptor (P35462 whole entry): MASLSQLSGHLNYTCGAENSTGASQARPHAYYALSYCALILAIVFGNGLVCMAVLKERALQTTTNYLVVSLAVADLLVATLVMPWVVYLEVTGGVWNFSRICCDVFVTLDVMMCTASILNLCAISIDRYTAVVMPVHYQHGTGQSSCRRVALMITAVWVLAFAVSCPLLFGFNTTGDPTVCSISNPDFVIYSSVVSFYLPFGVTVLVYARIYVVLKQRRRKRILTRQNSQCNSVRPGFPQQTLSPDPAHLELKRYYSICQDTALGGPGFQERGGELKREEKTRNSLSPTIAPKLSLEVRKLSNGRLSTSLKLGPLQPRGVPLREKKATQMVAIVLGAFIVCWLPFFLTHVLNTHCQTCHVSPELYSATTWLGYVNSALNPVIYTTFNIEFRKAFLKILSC

Mus musculus [1] = assay: Antipsychotic-like activity in orally dosed NMRI mouse assessed as reduction in MK801-induced locomotor activity dosed 15 to 30 mins before administration of MK801 measured for 60 mins; format: functional; conditions: po, read-out: MED
hERG (KCNH2) = hERG (KCNH2) (Homo sapiens, UniProt Q12809); assay: Inhibition of human ERG at 1 uM by whole cell based electrophysiology assay
Chain of hERG (KCNH2) (Q12809 whole entry): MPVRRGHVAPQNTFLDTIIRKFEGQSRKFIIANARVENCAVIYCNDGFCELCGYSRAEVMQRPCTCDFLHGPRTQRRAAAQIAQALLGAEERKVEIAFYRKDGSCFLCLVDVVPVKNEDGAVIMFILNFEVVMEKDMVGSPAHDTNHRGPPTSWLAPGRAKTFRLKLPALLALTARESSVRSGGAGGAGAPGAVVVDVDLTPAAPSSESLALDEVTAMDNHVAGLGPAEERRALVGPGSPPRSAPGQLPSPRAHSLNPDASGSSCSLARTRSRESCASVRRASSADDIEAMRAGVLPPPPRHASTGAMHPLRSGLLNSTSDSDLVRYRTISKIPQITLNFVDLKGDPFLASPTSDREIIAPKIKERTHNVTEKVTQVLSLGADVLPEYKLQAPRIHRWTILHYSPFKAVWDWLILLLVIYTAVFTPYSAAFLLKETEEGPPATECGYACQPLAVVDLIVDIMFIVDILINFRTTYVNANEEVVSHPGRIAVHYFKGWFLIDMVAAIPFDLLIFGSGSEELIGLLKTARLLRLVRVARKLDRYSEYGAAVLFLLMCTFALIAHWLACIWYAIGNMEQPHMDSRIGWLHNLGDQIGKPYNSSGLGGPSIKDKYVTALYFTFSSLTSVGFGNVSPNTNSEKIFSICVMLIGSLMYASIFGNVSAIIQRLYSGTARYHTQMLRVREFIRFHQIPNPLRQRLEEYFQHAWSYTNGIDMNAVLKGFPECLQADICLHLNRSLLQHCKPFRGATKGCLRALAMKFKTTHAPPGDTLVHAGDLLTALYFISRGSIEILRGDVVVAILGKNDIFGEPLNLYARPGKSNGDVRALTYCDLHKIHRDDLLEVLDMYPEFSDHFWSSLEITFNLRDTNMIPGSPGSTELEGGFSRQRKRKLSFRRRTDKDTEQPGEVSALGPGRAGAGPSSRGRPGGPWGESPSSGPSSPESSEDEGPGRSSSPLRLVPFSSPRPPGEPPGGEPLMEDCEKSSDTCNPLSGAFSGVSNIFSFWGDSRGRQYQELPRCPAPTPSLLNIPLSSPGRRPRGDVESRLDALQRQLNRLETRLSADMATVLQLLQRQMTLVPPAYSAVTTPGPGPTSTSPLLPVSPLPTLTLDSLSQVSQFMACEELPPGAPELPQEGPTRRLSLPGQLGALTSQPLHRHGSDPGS

Mus musculus [2] = assay: Reduction in startle response in mouse at 30 mg/kg, po dosed 30 mins before testing; format: ADME, organism-based; parameters: dose 30 mg/kg, route oral; conditions: in vivo, 0.5 h
Histamine H1 receptor = Histamine H1 receptor (Homo sapiens, UniProt P35367); assay: Binding affinity to human histamine H1 receptor
Chain of Histamine H1 receptor (P35367 whole entry): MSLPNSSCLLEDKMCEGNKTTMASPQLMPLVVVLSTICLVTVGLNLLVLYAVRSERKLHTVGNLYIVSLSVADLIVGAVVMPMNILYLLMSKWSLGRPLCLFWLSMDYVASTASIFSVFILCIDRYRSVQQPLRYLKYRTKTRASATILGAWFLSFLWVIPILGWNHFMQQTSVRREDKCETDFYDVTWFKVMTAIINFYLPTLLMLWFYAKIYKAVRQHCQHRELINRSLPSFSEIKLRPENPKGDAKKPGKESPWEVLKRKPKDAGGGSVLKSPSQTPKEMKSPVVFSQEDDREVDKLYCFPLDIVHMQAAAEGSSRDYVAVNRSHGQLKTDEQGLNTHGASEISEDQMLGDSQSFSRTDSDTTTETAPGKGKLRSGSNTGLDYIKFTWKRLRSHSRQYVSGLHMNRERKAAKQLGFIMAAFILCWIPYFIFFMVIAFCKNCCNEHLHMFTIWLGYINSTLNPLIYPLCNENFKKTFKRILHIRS

IC50 (D(3) dopamine receptor): 258 nM | Ki (Histamine H1 receptor): 110 nM
SMILES: O=C(NCCCCN1CCN(c2ccccc2)CC1)c1ccc2ncccc2c1
minimal effective dose (Mus musculus [1]): 10 mg/kg | inhibition at 1 µM (hERG (KCNH2)): 10% | Activity (Mus musculus [2]): Toxic
